Legend:
[1] = background statement; cited from earlier work
E. coli = experiment: Kirby-Bauer type assay, zone of inhibition; format: cell-based; settings: 24 h incubation
Method: (§1) Antimicrobial activity of the modified IRGASAN® bacteriostat was compared to that of the unmodified material in a Kirby-Bauer type assay. Three solutions of IRGASAN® bacteriostat and three solutions of modified IRGASAN® bacteriostat (3, 30 and 3000 ppm) were prepared and soaked into Whatman filter paper disks ˜6 mm in diameter and allowed to dry. The disks were placed onto the surface of nutrient agar plates that had been inoculated with 1×10^6 cells of either E. coli or Pseudomonas aeruginosa. The ability of the compounds to inhibit bacterial growth was determined by measuring the diameter of the zone of inhibition surrounding the filter paper disks after 24 h of incubation. The results (TABLE 1) indicate that there is no difference in activity between the modified and unmodified IRGASAN® bacteriostat compound.

Pseudomonas aeruginosa = experiment: Kirby-Bauer type assay, zone of inhibition; format: cell-based; settings: P. aeruginosa, 24 h incubation
Method: as §1

[2] = Dioxin (2,8 DCDD) formation during GC-MS analysis; format: physicochemical; settings: injection of a 1000 ppm solution at 270° C. (518° F.)
Method: Dioxin formation was compared between modified and unmodified IRGASAN® bacteriostat samples. It was determined that 2,8 DCDD was produced during analysis of unmodified IRGASAN® bacteriostat by gas-chromatography-mass spectroscopy (GC-MS), presumably during injection of the material at 270° C. (518° F.).
The structure of IRGASAN® bacteriostat was modified by derivatization with BSTFA. A 0.1 ml volume of BSTFA (Supelco inc.) was added to 1.0 ml of a 1000 ppm IRGASAN® solution. Dioxin levels were undetectable upon analysis of the modified IRGASAN® solution by GC-MS.

[3] = 3 ppm solution soaked into filter paper disk
[4] = 30 ppm solution soaked into filter paper disk
[5] = 3000 ppm solution soaked into filter paper disk

Row | SMILES | temperature above which the ether converts to chlorinated dioxin (DCDD) [1] | Zone of Inhibition (E. coli; [3]) | Zone of Inhibition (E. coli; [4]) | Zone of Inhibition (E. coli; [5]) | Zone of Inhibition (Pseudomonas aeruginosa; [3]) | Zone of Inhibition (Pseudomonas aeruginosa; [4]) | Zone of Inhibition (Pseudomonas aeruginosa; [5]) | production of DCDD (dioxin level) [2] | zone of inhibition at 3 ppm (E. coli; Escherichia coli, 3 ppm solution soaked into filter paper disk) | zone of inhibition at 30 ppm (E. coli; Escherichia coli, 30 ppm solution soaked into filter paper disk) | zone of inhibition at 3000 ppm (E. coli; Escherichia coli, 3000 ppm solution soaked into filter paper disk) | zone of inhibition at 3 ppm (Pseudomonas aeruginosa; Pseudomonas aeruginosa, 3 ppm solution soaked into filter paper disk) | zone of inhibition at 30 ppm (Pseudomonas aeruginosa; Pseudomonas aeruginosa, 30 ppm solution soaked into filter paper disk) | zone of inhibition at 3000 ppm (Pseudomonas aeruginosa; Pseudomonas aeruginosa, 3000 ppm solution soaked into filter paper disk)
1 | Oc1cc(Cl)ccc1Oc1ccc(Cl)cc1Cl [Unmodified, 2,4,4′-dichloro-2′-hydroxydiphenyl ether] | above 200 °C | 1 mm | 4 mm | 12 mm | 0 mm | 0 mm | 0 mm | approximately 46 ppm |  |  |  |  |  | 
2 | C[Si](C)(C)Oc1cc(Cl)ccc1Oc1ccc(Cl)cc1Cl [Modified, 2,4,4′-trichloro-2′-trimethylsilyloxy diphenyl ether] |  |  |  |  |  |  |  | undetectable | 1 mm | 4 mm | 12 mm | 0 mm | 0 mm | 0 mm
